Assay [1] has as its system NF-κB pathway in THP-1 dual cells. Put plainly: THP-1 Dual reporter assay, NF-κB pathway (SEAP). As to conditions: Homo sapiens, THP1-Dual, read-out: THP1 Dual EC50 (μM) NFkB. It is filed as cell-based. The procedure: (§1) Compounds of the present invention were tested for their activity using THP-1 dual cells (Invivogen, cat no. thpd-nfis) allowing for simultaneous study of NF-κB pathway and the interferon regulatory factor (IRF) pathway. THP-1 dual cells contain luciferase reporter gene under the control of an ISG54 (interferon-stimulated gene) minimal promoter in conjunction with five interferon-stimulated response elements and a secreted embryonic alkaline phosphatase reporter gene under the control an IFN (interferon)-β minimal promoter fused to five copies of the NF-κB consensus transcriptional response element with three copies of the c-Rel binding site. Following 18 h of stimulation with STING agonist, medium was collected and transferred onto fresh cell culture plate. To verify activity of the IRF pathway, luminescence activity was measured with standard laboratory plate reader immediately after addition 10 μl of the medium to 40 or 50 μl of luminescence reagent (Invivogen, cat. No. rep-qlc2). To verify activity of NF-κB pathway, 10 or 20 μl of the medium was mixed with 80 μl of a detection medium (Invivogen, cat. No. rep-qb2) and incubated for 1 or 2 hours at 37° C. in a humidified atmosphere containing 5% CO2. Next, absorbance at 630 or 655 nm was recorded using standard laboratory plate reader.

In assay [2] the test system is interferon regulatory factor (IRF) pathway in THP-1 dual cells. Kind of assay: THP-1 Dual reporter assay, IRF pathway (luciferase). It is filed as cell-based. Conditions: read-out: THP1 Dual EC50 (μM) IRF. The procedure:
as §1

Where [3] appears, read: 18 h stimulation, absorbance at 630 or 655 nm.
The mark [4] stands for this setting: Homo sapiens, THP1-Dual, 18 h stimulation, luminescence.

Where a name gives a salt, the structure may show the parent alone. Read-outs that look alike come from different tables or passages of the source.

For `Cc1ccc(N2CCC[C@H](N(Cc3ccnc(C)c3)Cc3cn(C4CC4)c4cc(OCCOC(=O)NCc5ccc(NC(=O)CCOCCOCCOCCNC(=O)OC(C)(C)C)cc5)c(F)cc4c3=O)C2)cn1` [Example 47B, 2-{[1-cyclopropyl-6-fluoro-3-({[(3S)-1-(6-methylpyridin-3-yl)piperidin-3-yl][(2-methylpyridin-4-yl)methyl]amino}methyl)-4-oxo-1,4-dihydroquinolin-7-yl]oxy}ethyl N-{[4-(3-{2-[2-(2-{[(tert-butoxy)carbonyl]amino}ethoxy)ethoxy]ethoxy}propanamido)phenyl]methyl}carbamate], the EC50 in assay [1] (18 h) was < 1 µM; in assay [2] (Homo sapiens, THP1-Dual, 18 h), < 1 µM.
As to `Cc1cc(CN(Cc2cn(C)c3ccccc3c2=O)[C@H]2CCCN(c3cncc(CO)c3)C2)ccn1` [Example 44], the EC50 in assay [1] (18 h) was > 10 µM; in assay [2] (Homo sapiens, THP1-Dual, 18 h), > 10 µM.
As to `Cc1ccc(N2CCC[C@H](N(Cc3ccnc(C)c3)Cc3cn(C4CC4)c4cc(N5CCC(N(C)C(=O)OCc6ccc(NC(=O)[C@H](CCCNC(N)=O)NC(=O)[C@@H](NC(=O)CCOCCOCCOCCN=[N+]=[N-])C(C)C)cc6)CC5)c(F)cc4c3=O)C2)cn1` [Example 19A], the concentration for a half-maximal effect (EC50) in assay [1] (setting [3]) and in assay [2] (setting [4]) was 1 to 10 µM each time.
With `Cc1ccc(N2CCC[C@H](N(Cc3ccnc(C)c3)Cc3cn(C4CC4)c4cc(OCCN(C)C(=O)CCOCCOCCOCCN)c(F)cc4c3=O)C2)cn1` [Example 11B, 3-{2-[2-(2-aminoethoxy)ethoxy]ethoxy}-N-(2-{[1-cyclopropyl-6-fluoro-3-({[(3S)-1-(6-methylpyridin-3-yl)piperidin-3-yl][(2-methylpyridin-4-yl)methyl]amino}methyl)-4-oxo-1,4-dihydroquinolin-7-yl]oxy}ethyl)-N-methylpropanamide], the EC50 in assay [1] (setting [3]) and in assay [2] (setting [4]) was 1 to 10 µM in each case.
Regarding `Cc1ccc(N2CCC[C@H](N(Cc3ccnc(C)c3)Cc3cn(C4CC4)c4cc(N5CC[C@@H](N(C)CCOCCOCCOCCOCCNC(=O)OC(C)(C)C)C5)c(F)cc4c3=O)C2)cn1` [Example 55B, tert-Butyl N-{2-[(3R)-1-[1-cyclopropyl-6-fluoro-3-({[(3S)-1-(6-methylpyridin-3-yl)piperidin-3-yl][(2-methylpyridin-4-yl)methyl]amino}methyl)-4-oxo-1,4-dihydroquinolin-7-yl]pyrrolidin-3-yl]-5,8,11,14-tetraoxa-2-azahexadecan-16-yl}carbamate], the EC50 in assay [1] (setting [3]) and in assay [2] (setting [4]) was < 1 µM each time.
On to `Cc1ccc(N2CCC[C@H](N(Cc3ccnc(C)c3)Cc3cn(C4CC4)c4cc(OCCN(C)C(=O)OCc5ccc(NC(=O)[C@H](CCCNC(N)=O)NC(=O)[C@@H](NC(=O)CCOCCOCCOCCN=[N+]=[N-])C(C)C)cc5)c(F)cc4c3=O)C2)cn1` [Example 11H, {4-[(2S)-2-[(2S)-2-(3-{2-[2-(2-azidoethoxy)ethoxy]ethoxy}propanamido)-3-methyl-butanamido]-5-(carbamoylamino)pentanamido]phenyl}methyl N-(2-{[1-cyclopropyl-6-fluoro-3-({[(3S)-1-(6-methylpyridin-3-yl)piperidin-3-yl][(2-methylpyridin-4-yl)methyl]amino}methyl)-4-oxo-1,4-dihydroquinolin-7-yl]oxy}ethyl)-N-methylcarbamate], for which the EC50 in assay [1] (setting [3]) and in assay [2] (setting [4]) was > 10 µM in each case.
For `Cc1cc(CN(Cc2cn(C3CC3)c3cc(N4CC[C@H](CO)C4)c(F)cc3c2=O)[C@H]2CCCN(c3cnccn3)C2)ccn1` [Example 94, 1-cyclopropyl-6-fluoro-7-[(3S)-3-(hydroxymethyl)pyrrolidin-1-yl]-3-({[(2-methylpyridin-4-yl)methyl][(3S)-1-(pyrazin-2-yl)piperidin-3-yl]amino}methyl)-1,4-dihydroquinolin-4-one hydrochloride], the EC50 in assay [1] (setting [3]) and in assay [2] (setting [4]) was < 1 µM each time.
`Cc1ccc(N2CCC[C@H](N(Cc3ccnc(C)c3)Cc3cn(C4CC4)c4cc(N5CCO[C@H](CO)C5)c(F)cc4c3=O)C2)cn1` (single isomer, unassigned) [Example 73]: the concentration for a half-maximal effect (EC50) in assay [1] (setting [3]) and in assay [2] (setting [4]) was < 1 µM throughout.
Take `Cc1ccc(N2CCC[C@H](N(Cc3ccnc(C)c3)Cc3cn(C4CC4)c4cc(C5C[C@@H](O)CN5)ccc4c3=O)C2)cn1` (stereo partly drawn) [Example 76, 1-cyclopropyl-7-[(4R)-4-hydroxypyrrolidin-2-yl]-3-({[(3S)-1-(6-methylpyridin-3-yl)piperidin-3-yl][(2-methylpyridin-4-yl)methyl]amino}methyl)-1,4-dihydroquinolin-4-one]: the EC50 in assay [1] (setting [3]) and in assay [2] (setting [4]) was 1 to 10 µM each time.
For the compound `Cc1cc(CN(Cc2cn(C3CC3)c3cc(OCCO)c(F)cc3c2=O)[C@H]2CCCN(c3cccnn3)C2)ccn1` [Example 96, 1-cyclopropyl-6-fluoro-7-(2-hydroxyethoxy)-3-({[(2-methylpyridin-4-yl)methyl][(3S)-1-(pyridazin-3-yl)piperidin-3-yl]amino}methyl)-1,4-dihydroquinolin-4-one], the values for the EC50 in assay [1] (setting [3]) and in assay [2] (setting [4]) were > 10 µM and 1 to 10 µM, respectively.
Regarding `Cc1ccc(N2CCC[C@H](N(Cc3ccnc(C)c3)Cc3cn(C(C)C)c4cc(N5CC[C@@H](O)C5)ccc4c3=O)C2)cn1` [Example 52, 7-[(3R)-3-hydroxypyrrolidin-1-yl]-3-({[(3S)-1-(6-methylpyridin-3-yl)piperidin-3-yl][(2-methylpyridin-4-yl)methyl]amino}methyl)-1-(propan-2-yl)-1,4-dihydroquinolin-4-one], the concentration giving a half-maximal response (EC50) in assay [1] (setting [3]) and in assay [2] (setting [4]) was < 1 µM throughout.
As to `Cc1ccc(N2CCC[C@H](N(Cc3ccnc(C)c3)Cc3cn(C(C)C)c4nc(N5CC[C@@H](O)C5)c(F)cc4c3=O)C2)cn1` [Example 42, 6-fluoro-7-[(3R)-3-hydroxypyrrolidin-1-yl]-3-({[(3S)-1-(6-methylpyridin-3-yl)piperidin-3-yl][(2-methylpyridin-4-yl)methyl]amino}methyl)-1-(propan-2-yl)-1,4-dihydro-1,8-naphthyridin-4-one], the EC50 was < 1 µM in assay [1] (18 h) and < 1 µM in assay [2] (Homo sapiens, THP1-Dual, 18 h).
With `Cc1ccc(N2CCC[C@H](N(Cc3ccnc(C)c3)Cc3cn(C(C)C)c4cc(N5CCN(CCO)CC5)ccc4c3=O)C2)cn1` [Example 53, 7-[4-(2-Hydroxyethyl)piperazin-1-yl]-3-({[(3S)-1-(6-methylpyridin-3-yl)piperidin-3-yl][(2-methylpyridin-4-yl)methyl]amino}methyl)-1-(propan-2-yl)-1,4-dihydroquinolin-4-one], the half-maximal effective concentration (EC50) in assay [1] (setting [3]) and in assay [2] (setting [4]) was < 1 µM throughout.
For the compound `Cc1cc(CN(Cc2cn(C3CC3)c3cc(Cl)c(F)cc3c2=O)[C@H]2CCCN(c3cnccc3CO)C2)ccn1` [Example 74, 7-chloro-1-cyclopropyl-6-fluoro-3-({[(3S)-1-[4-(hydroxymethyl)pyridin-3-yl]piperidin-3-yl][(2-methylpyridin-4-yl)methyl]amino}methyl)-1,4-dihydroquinolin-4-one], the EC50 in assay [1] (setting [3]) and in assay [2] (setting [4]) was 1 to 10 µM in each case.
For `Cc1cc(CN(Cc2cn(C3CC3)c3cc(OCCO)c(F)cc3c2=O)[C@H]2CCCN(c3cncc(F)c3)C2)ccn1` [Example 90, 1-cyclopropyl-6-fluoro-3-({[(3S)-1-(5-fluoropyridin-3-yl)piperidin-3-yl][(2-methylpyridin-4-yl)methyl]amino}methyl)-7-(2-hydroxyethoxy)-1,4-dihydroquinolin-4-one hydrochloride], the concentration giving a half-maximal response (EC50) in assay [1] (setting [3]) and in assay [2] (setting [4]) was < 1 µM throughout.
On to `Cc1cc(CN(Cc2cn(C)c3ccccc3c2=O)[C@H]2CCCN(c3ccc(CO)nc3)C2)ccn1` [Example 40, 3-({[(3S)-1-[6-(hydroxymethyl)pyridin-3-yl]piperidin-3-yl][(2-methylpyridin-4-yl)methyl]amino}methyl)-1-methyl-1,4-dihydroquinolin-4-one], for which the EC50 in assay [1] (setting [3]) and in assay [2] (setting [4]) was 1 to 10 µM throughout.
On to `C#CCOCCOCCOCCOCCOCCC(=O)O[C@H]1CCCN(c2cc3c(cc2F)c(=O)c(CN(Cc2ccnc(C)c2)[C@H]2CCCN(c4ccc(C)nc4)C2)cn3C2CC2)C1` [Example 31A, (3S)-1-[1-cyclopropyl-6-fluoro-3-({[(3S)-1-(6-methylpyridin-3-yl)piperidin-3-yl][(2-methylpyridin-4-yl)methyl]amino}methyl)-4-oxo-1,4-dihydroquinolin-7-yl]piperidin-3-yl 4,7,10,13,16-pentaoxanonadec-18-ynoate], for which the 50% effective concentration (EC50) in assay [1] (setting [3]) and in assay [2] (setting [4]) was < 1 µM each time.
With `Cc1cc(CN(Cc2cn(C3CC3)c3cc(N4CCC(CO)C4)c(F)cc3c2=O)[C@H]2CCCN(c3cccnc3)C2)ccn1` (stereo in doubt) [Example 88, 1-cyclopropyl-6-fluoro-7-[(3R)-3-(hydroxymethyl)pyrrolidin-1-yl]-3-({[(2-methylpyridin-4-yl)methyl][(3S)-1-(pyridin-3-yl)piperidin-3-yl]amino}methyl)-1,4-dihydroquinolin-4-one hydrochloride], the half-maximal effective concentration (EC50) in assay [2] (18 h stimulation, luminescence) was < 1 µM.

These data come from patent US12643879B2, “Functionalized heterocyclic compounds as modulators of stimulator of interferon genes (STING)” (RYVU THERAPEUTICS S.A., priority 2019, dated 2026).
